Source: patent US5378689A, “Peptides having renin inhibitory activity, their preparation and use” (Sankyo Company, Limited, priority 1989, dated 1995)

The molecules below were run against T1, human renin (Homo sapiens, UniProt P00797) (assay: Inhibition of renin activity (human renin, sheep angiotensinogen, remaining angiotensin I assayed)). Conditions: 1×10^-7 M test compound, pH 7.3, 37° C., 10 minutes, mean of 3 or 4 experiments.
T1 sequence (P00797 67-406): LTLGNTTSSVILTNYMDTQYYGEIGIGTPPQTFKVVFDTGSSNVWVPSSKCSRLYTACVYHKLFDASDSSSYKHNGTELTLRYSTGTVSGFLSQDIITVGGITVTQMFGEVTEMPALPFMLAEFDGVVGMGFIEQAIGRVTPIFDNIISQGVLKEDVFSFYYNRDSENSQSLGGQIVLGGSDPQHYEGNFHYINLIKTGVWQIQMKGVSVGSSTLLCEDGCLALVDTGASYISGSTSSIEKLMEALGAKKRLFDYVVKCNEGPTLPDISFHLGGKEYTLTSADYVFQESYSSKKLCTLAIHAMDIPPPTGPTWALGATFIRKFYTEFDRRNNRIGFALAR
Format: biochemical
Description: The ability of various compounds of the invention to inhibit the activity of renin was determined according to the following method, which follows essentially the procedure of Kokubu et al. [Hypertension, 5, 191-197 (1983)].
Specifically, each test compound was dissolved in 60% v/v aqueous ethanol. Human renin activity in the presence and absence of each compound was measured using sheep angiotensinogen. The total volume of 1 ml of assay mixture contained 0.1 mole/liter phosphate buffer (pH 7.3), human renin (equivalent to 0.5 ng angiotensin I per ml per minute), sheep angiotensinogen (equivalent to 200 ng angiotensin I), 1×10^-7 M of the test compound, 6% v/v ethanol and angiotensinase inhibitors (10 mmole/liter sodium ethylenediaminetetraacetate and 3.4 mmole/liter 8-hydroxyquinoline). The mixture was allowed to react for 10 minutes at 37° C., and then the reaction was stopped by placing the reaction tube in a boiling water bath for 5 minutes. The mixture was then centrifuged and the supernatant (0.05-0.1 ml) was used to assay remaining angiotensin I.
An identical experiment was carried out, as a control, except that the test compound was omitted. From the values obtained were calculated the % inhibition of renin activity achieved by each test compound. The results are shown in the following Table 2, in which the compounds of the invention are identified by the numbers of the Examples given hereafter in which are described their preparation. The values given are the mean of 3 or 4 experiments.

Row | Inhibitory activity (%) Against Human Renin (1 × 10^-7 M) [%] | Structure (SMILES)
1 | 96.9 | CCCCNC(=O)[C@@H](C[C@H](O)[C@H](CC1CCCCC1)NC(=O)[C@H](Cc1cscn1)NC(=O)[C@@H](CC(=O)N1CCOCC1)Cc1ccc(OC)cc1)C(C)C [Example 4]
2 | 96.2 | CCCCNC(=O)[C@H](C)C[C@H](O)[C@H](CC1CCCCC1)NC(=O)[C@H](Cc1cscn1)NC(=O)[C@@H](CC(=O)N(C)Cc1ccccc1)Cc1ccccc1 [Example 8, (2R, 4S, 5S)-5-{N-[2(R)-Benzyl-3-(N-benzyl-N-methylaminocarbonyl)propionyl]-3-(4-thiazolyl)-L-alanyl}-amino-N-butyl-6-cyclohexyl-4-hydroxy-2-methylhexanamide]
3 | 95.7 | CNC(=O)[C@H](C)C[C@H](O)[C@H](CC1CCCCC1)NC(=O)[C@H](Cc1cscn1)NC(=O)[C@@H](CC(=O)N(C)Cc1ccccc1)Cc1ccccc1 [Example 14, (2R, 4S, 5S )-5-{N-[2(R)-Benzyl-3-(N-benzyl-N-methylaminocarbonyl)propionyl]-3-(4-thiazolyl)-L-alanyl}-amino-6-cyclohexyl-4-hydroxy-2,N-dimethylhexanamide]

Row | Structure (SMILES) | Inhibitory activity (%) Against Human Renin (1 × 10^-7 M) [%]
4 | CCCCNC(=O)[C@H](C)C[C@H](O)[C@H](CC1CCCCC1)NC(=O)[C@H](Cc1cscn1)NC(=O)[C@@H](CC(=O)N1CCOCC1)Cc1ccccc1 [Example 6] | 96.1

Same assay, conditions: 1×10^-7 M test compound, pH 7.3, 37° C., 10 minutes, mean of 3 or 4 experiments, read-out: Inhibitory activity (%) Against Human Renin (1 × 10^-7 M)

Row | inhibition at 0.1 µM [%] | Structure (SMILES)
5 | 96 | CCCCNC(=O)[C@@H](C[C@H](O)[C@H](CC1CCCCC1)NC(=O)[C@H](Cc1cscn1)NC(=O)[C@@H](CC(=O)N1CCOCC1)Cc1ccccc1)C(C)C [Example 2, (2S, 4S, 5S)-5-{N-[2(R)-Benzyl-3-(morpholinocarbonyl)-propionyl]-3-(4-thiazolyl)-L-alanyl}amino-N-butyl-6-cyclohexyl-4-hydroxy-2-isopropylhexanamide]
6 | 91.6 | CCCCNC(=O)[C@H](C)C[C@H](O)[C@H](CC1CCCCC1)NC(=O)[C@H](Cc1cscn1)NC(=O)[C@@H](CC(=O)N(C)Cc1ccccc1)Cc1ccc(OC)cc1 [Example 11, (2R, 4S, 5S)-N-Butyl-6-cyclohexyl-4-hydroxy-5-{N-[2(R)-(4-methoxybenzyl)-3-(N-benzyl-N-methylaminocarbonyl)-propionyl]-3-(4-thiazolyl)-L-alanyl}amino-2-methylhexanamide]
7 | 94.8 | CCCCNC(=O)[C@@H](C[C@H](O)[C@H](CC1CCCCC1)NC(=O)[C@H](Cc1cscn1)NC(=O)[C@@H](CC(=O)N(C)Cc1ccccc1)Cc1ccccc1)C(C)C [Example 16, (2S, 4S, 5S)-5-{N-[2(R)-Benzyl-3-(N-benzyl-N-methylaminocarbonyl)propionyl]-3-(4-thiazolyl)-L-alanyl}amino-N-butyl-6-cyclohexyl-4-hydroxy-2-isopropylhexanamide]

The next lines start with the molecule.

Row | Structure (SMILES) | inhibition at 0.1 µM [%]
8 | CNC(=O)[C@@H](C[C@H](O)[C@H](CC1CCCCC1)NC(=O)[C@H](Cc1cscn1)NC(=O)[C@@H](CC(=O)N1CCOCC1)Cc1ccccc1)C(C)C [Example 1, (2S, 4S, 5S)-5-{N-[2(R)-Benzyl-3-(morpholinocarbonyl)-propionyl]-3-(4-thiazolyl)-L-alanyl}amino-6-cyclohexyl-4-hydroxy-2-isopropyl-N-methylhexanamide] | 95.2
9 | CNC(=O)[C@@H](C[C@H](O)[C@H](CC1CCCCC1)NC(=O)[C@H](Cc1cscn1)NC(=O)[C@@H](CC(=O)N1CCOCC1)Cc1ccc(OC)cc1)C(C)C [Example 3, (2S, 4S, 5S)-5-{N-[2(R)-(4-Methoxybenzyl)-3-(morpholinocarbonyl)propionyl]-3-(4-thiazolyl)-L-alanyl}amino-6-cyclohexyl-4-hydroxy-2-isopropyl-N-methylhexanamid] | 93.1
10 | CNC(=O)[C@H](C)C[C@H](O)[C@H](CC1CCCCC1)NC(=O)[C@H](Cc1cscn1)NC(=O)[C@@H](CC(=O)N1CCOCC1)Cc1ccccc1 [Example 5, (2R, 4S, 5S)-5-{N-[2(R)-Benzyl-3-(morpholinocarbonyl)-propionyl]-3-(4-thiazolyl)-L-alanyl}amino-6-cyclohexyl-4-hydroxy-2,N-dimethylhexanamide] | 95.6
